The text below walks through data of patent US10473666B2, “Dye compounds” (SFC CO., LTD., priority 2015, dated 2019).

SMILES strings stand for the structures.

Data set [1] can be described thus: Absorption spectra, emission spectra, molar extinction coefficients and quantum yields of the dye compounds. It counts as physicochemical.
Data set [2] is described as follows: Photophysical properties incl. two-photon cross-sections (femtosecond fluorescence measurement technique). It counts as physicochemical. The settings on record: for eΦ: Molar extinction coefficient × fluorescence quantum yield: in M-1cm-1. Here is the method: All measurements were performed in DMSO, ethanol, and PBS buffer. Two-photon cross-sections (δ) were measured using a femtosecond (fs) fluorescence measurement technique.

On to `CC[N+]1=C(/C=C/C=C2/N(CCCCCC(=O)O)c3ccccc3C2(C)C)C(C)(C)c2ccccc21` [Comparative, reference compound], for which, in data set [1] (Table 1, solvent not given), the “Q.Y. (quantum yield)” value was 0.04, the “ε (molar extinction coefficient)” value is 150,000 M^−1cm^−1, the λabs is given as 548 nm and the λem is 562 nm. In addition, in data set [1] (Table 4, solvent not given), the Quantum yield is 0.04, the “ε (molar extinction coefficient)” value is 150,000 M^−1cm^−1, the λabs is listed as 548 nm and the λem came out at 562 nm. Moreover, in data set [1] (Table 6, solvent not given), the Quantum yield worked out at 0.04, the “ε (molar extinction coefficient)” value was 150,000 M^−1cm^−1, the λabs is recorded as 548 nm and the λem is 562 nm.

For `CC1(C)C2=C3C=C4C=C(c5nc6ccc(C(=O)O)cc6s5)C(=O)C=C4OC3CCN2c2ccccc21` (stereo not shown) [Formula 51], in data set [1] (Table 4, solvent DMSO), the Quantum yield worked out at 0.75, the “ε (molar extinction coefficient)” value is given as 78,800 M^−1cm^−1, the λabs was 595 nm and the λem is on record as 621 nm.

In data set [1] (Table 4, solvent PBS), `CC1(C)C2=C3C=C4C=CC(=O)C=C4OC3CCN2c2ccc(CC(=O)O)cc21` (stereo not shown) [Formula 52] came in with a Quantum yield of 0.61, a λabs of 541 nm and a λem of 564 nm.

On to `CC1(C)C2=C3C=C4C=C(C(=O)O)C(=O)C=C4OC3CCN2c2ccc(S(=O)(=O)O)cc21` (stereo not shown) [Formula 53], for which, in data set [1] (Table 4, solvent DMSO), the Quantum yield is given as 0.95, the “ε (molar extinction coefficient)” value was 33,000 M^−1cm^−1, the λabs turned out to be 546 nm and the λem was determined as 570 nm.

Take `COc1ccc2c(c1)OC1CC[N+]3=C(C1=C2)C(C)(C)c1ccccc13` (stereo not shown) [Formula 99]: in data set [1] (Table 6, solvent DMSO), the Quantum yield turned out to be 0.65, the “ε (molar extinction coefficient)” value is listed as 21,000 M^−1cm^−1, the λabs was 467 nm and the λem worked out at 563 nm. In addition, in data set [1] (Table 6, solvent EtOH), the Quantum yield turned out to be 0.52, the “ε (molar extinction coefficient)” value is 22,000 M^−1cm^−1, the λabs is 474 nm and the λem is recorded as 558 nm. Besides, in data set [1] (Table 6, solvent PBS), the Quantum yield was determined as 0.42, the “ε (molar extinction coefficient)” value is recorded as 30,000 M^−1cm^−1, the λabs came out at 463 nm and the λem amounted to 558 nm.

As to `CC1(C)C2=[N+](CCC3Oc4c(cc5c6c4CCCN6CCC5)C=C23)c2ccccc21` (stereo not shown) [Formula 100], in data set [1] (Table 6, solvent DMSO), the Quantum yield came out at 0.90, the “ε (molar extinction coefficient)” value is reported as 65,000 M^−1cm^−1, the λabs is 594 nm and the λem is 618 nm. In data set [1] (Table 6, solvent EtOH), the Quantum yield was determined as 0.90, the “ε (molar extinction coefficient)” value is listed as 75,000 M^−1cm^−1, the λabs was determined as 592 nm and the λem was determined as 612 nm. In addition, in data set [1] (Table 6, solvent PBS), the Quantum yield was 0.80, the “ε (molar extinction coefficient)” value is recorded as 54,000 M^−1cm^−1, the λabs was determined as 589 nm and the λem turned out to be 608 nm. In data set [2] (Buffer (PBS buffer)), the “d: Peak two-photon cross-section” value is 272 10^−50 cm^4s per photon (GM), the dΦ: Two-photon action cross-section is 177 GM, the “Φ: Fluorescence quantum yield” value worked out at 0.65 and the “λ^(2)max^abs: Maximum wavelength in two-photon absorption spectrum” value (shortened to “λ^(2)max^abs: Maximum wavelength”) amounted to 740 nm. Also, in data set [2] (Buffer (PBS buffer)), the “λmax^fl: Maximum wavelength in single-photon emission spectrum” value (“λmax^fl: Maximum wavelength” for short) stood at 611 nm and the “eΦ: Molar extinction coefficient × fluorescence quantum yield” value came to 61750. Besides, in data set [2] (DMSO), the “Φ: Fluorescence quantum yield” value is listed as 0.90 and the “λmax^fl: Maximum wavelength” value was found to be 618 nm. Also, in data set [2] (EtOH), the dΦ: Two-photon action cross-section was 114 GM and the “λ^(2)max^abs: Maximum wavelength” value came to 750 nm.

On to `C1=C2c3sc4ccccc4[n+]3CCC2Oc2c1cc1c3c2CCCN3CCC1` (stereo not shown) [Formula 101], for which, in data set [1] (Table 6, solvent DMSO), the Quantum yield was 0.70, the “ε (molar extinction coefficient)” value is 54,000 M^−1cm^−1, the λabs was found to be 584 nm and the λem was determined as 630 nm. Besides, in data set [1] (Table 6, solvent EtOH), the Quantum yield stood at 0.87, the “ε (molar extinction coefficient)” value is on record as 66,000 M^−1cm^−1, the λabs amounted to 585 nm and the λem was 623 nm. For the same compound, in data set [1] (Table 6, solvent PBS), the Quantum yield was determined as 0.61, the “ε (molar extinction coefficient)” value is 49,000 M^−1cm^−1, the λabs is 578 nm and the λem is reported as 619 nm. For the same compound, in data set [2] (Buffer (PBS buffer)), the “d: Peak two-photon cross-section” value is reported as 89 10^−50 cm^4s per photon (GM), the dΦ: Two-photon action cross-section turned out to be 54 GM, the “Φ: Fluorescence quantum yield” value is recorded as 0.61 and the “λ^(2)max^abs: Maximum wavelength” value is reported as 740 nm. Besides, in data set [2] (Buffer (PBS buffer)), the “λmax^fl: Maximum wavelength” value is 619 nm and the “eΦ: Molar extinction coefficient × fluorescence quantum yield” value stood at 29890. Besides, in data set [2] (DMSO), the “Φ: Fluorescence quantum yield” value worked out at 0.70 and the “λmax^fl: Maximum wavelength” value was found to be 630 nm. Further, in data set [2] (EtOH), the dΦ: Two-photon action cross-section was 54 GM and the “λ^(2)max^abs: Maximum wavelength” value stood at 720 nm.

On to `Oc1ccc2c(c1)OC1CC[n+]3c(sc4ccccc43)C1=C2` (stereo not shown) [Formula 102], for which, in data set [1] (Table 6, solvent DMSO), the Quantum yield was found to be 0.99, the “ε (molar extinction coefficient)” value is listed as 23,000 M^−1cm^−1, the λabs stood at 570 nm and the λem worked out at 586 nm. For the same compound, in data set [1] (Table 6, solvent EtOH), the Quantum yield came to 0.78, the “ε (molar extinction coefficient)” value is 6,800 M^−1cm^−1, the λabs amounted to 557 nm and the λem is recorded as 578 nm. Further, in data set [1] (Table 6, solvent PBS), the Quantum yield was determined as 0.70, the “ε (molar extinction coefficient)” value was 7,100 M^−1cm^−1, the λabs came out at 524 nm and the λem is 571 nm. In data set [2] (Buffer (PBS buffer)), the “d: Peak two-photon cross-section” value is 60 10^−50 cm^4s per photon (GM), the dΦ: Two-photon action cross-section came to 42 GM, the “Φ: Fluorescence quantum yield” value is recorded as 0.70 and the “λ^(2)max^abs: Maximum wavelength” value is on record as 910 nm. Further, in data set [2] (Buffer (PBS buffer)), the “λmax^fl: Maximum wavelength” value stood at 571 nm and the “eΦ: Molar extinction coefficient × fluorescence quantum yield” value stood at 4970. Besides, in data set [2] (DMSO), the “Φ: Fluorescence quantum yield” value was 1.00 and the “λmax^fl: Maximum wavelength” value turned out to be 586 nm. Besides, in data set [2] (EtOH), the dΦ: Two-photon action cross-section stood at 7.6 GM and the “λ^(2)max^abs: Maximum wavelength” value is recorded as 750 nm.

Regarding `CC1(C)C2=C3C=C4C=C(C=O)C(=O)C=C4OC3CCN2c2ccccc21` (stereo not shown) [Formula 103], in data set [1] (Table 6, solvent DMSO), the Quantum yield amounted to 0.88, the “ε (molar extinction coefficient)” value is given as 108,000 M^−1cm^−1, the λabs is listed as 566 nm and the λem amounted to 586 nm. In data set [1] (Table 6, solvent EtOH), the Quantum yield was found to be 0.84, the “ε (molar extinction coefficient)” value is reported as 70,000 M^−1cm^−1, the λabs stood at 547 nm and the λem amounted to 574 nm. Further, in data set [1] (Table 6, solvent PBS), the Quantum yield is 0.79, the “ε (molar extinction coefficient)” value is reported as 48,000 M^−1cm^−1, the λabs is 516 nm and the λem came to 563 nm.

With `C[n+]1c(/C=C/C2=CC3=CC4=C5N(CCC4OC3=CC2=O)c2ccccc2C5(C)C)sc2ccccc21` (stereo not shown) [Formula 104], in data set [1] (Table 6, solvent DMSO), the Quantum yield amounted to 0.38, the “ε (molar extinction coefficient)” value is listed as 52,000 M^−1cm^−1, the λabs is on record as 646 nm and the λem was 685 nm. Besides, in data set [1] (Table 6, solvent PBS), the Quantum yield is reported as 0.09, the “ε (molar extinction coefficient)” value was 28,000 M^−1cm^−1, the λabs was determined as 559 nm and the λem was 572 nm.

In the case of `CC1=CC(C)(C)N2CCCc3c4c(cc1c32)C=C1C2=[N+](CCC1O4)c1ccccc1C2(C)C` (stereo not shown) [Formula 105], in data set [1] (Table 6, solvent DMSO), the Quantum yield stood at 0.70, the “ε (molar extinction coefficient)” value is reported as 37,000 M^−1cm^−1, the λabs is reported as 613 nm and the λem is reported as 649 nm. Further, in data set [1] (Table 6, solvent EtOH), the Quantum yield amounted to 0.50, the “ε (molar extinction coefficient)” value is reported as 44,000 M^−1cm^−1, the λabs was determined as 611 nm and the λem was determined as 645 nm. Moreover, in data set [1] (Table 6, solvent PBS), the Quantum yield came out at 0.28, the “ε (molar extinction coefficient)” value is on record as 35,000 M^−1cm^−1, the λabs came out at 604 nm and the λem came out at 643 nm.

Regarding `CC1=CC(C)(C)N(CCCCCC(=O)O)c2cc3c(cc21)C=C1C2=[N+](CCC1O3)c1ccc3ccccc3c1C2(C)C` (stereo not shown) [Formula 106], in data set [1] (Table 6, solvent DMSO), the Quantum yield is 0.72, the “ε (molar extinction coefficient)” value was 55,000 M^−1cm^−1, the λabs was found to be 620 nm and the λem is recorded as 660 nm. Further, in data set [1] (Table 6, solvent EtOH), the Quantum yield is given as 0.59, the “ε (molar extinction coefficient)” value is 70,000 M^−1cm^−1, the λabs worked out at 620 nm and the λem was 657 nm. For the same compound, in data set [1] (Table 6, solvent PBS), the Quantum yield was determined as 0.21, the “ε (molar extinction coefficient)” value is 29,000 M^−1cm^−1, the λabs is given as 616 nm and the λem was found to be 652 nm.

Take `CC1=CC(C)(C)N2CCCc3c4c(cc1c32)C=C1C2=[N+](CCC1O4)c1ccc3ccccc3c1C2(C)C` (stereo not shown) [Formula 107]: in data set [1] (Table 6, solvent DMSO), the Quantum yield is on record as 0.70, the “ε (molar extinction coefficient)” value is given as 40,000 M^−1cm^−1, the λabs is listed as 629 nm and the λem is given as 664 nm. Besides, in data set [1] (Table 6, solvent EtOH), the Quantum yield was 0.52, the “ε (molar extinction coefficient)” value is recorded as 50,000 M^−1cm^−1, the λabs is given as 628 nm and the λem amounted to 659 nm. Further, in data set [1] (Table 6, solvent PBS), the Quantum yield was 0.29, the “ε (molar extinction coefficient)” value is 37,000 M^−1cm^−1, the λabs is 624 nm and the λem is reported as 655 nm.
